This is an account of results in ChEMBL document CHEMBL5620357, “Synthesis and anti-inflammatory activity evaluation of NO-releasing furoxan/1,2,4-triazole hybrid derivatives” (Eur J Med Chem, 2023).

Each structure is given as a SMILES string. Active and inactive are the calls of the source. The rule behind the calls is not given here. A value given as a limit tells only on which side of the number the result lay.

A short description of series [1]: Cytotoxicity against mouse RAW264.7 cells assessed as cell viability at 50 uM measured after 24 hrs by MTT assay. It counts as toxicity, cell-based. As to conditions: read-out: Activity. For orientation: Tetrazolium assays rely on reduction of a dye to a coloured formazan, in cell work by metabolically active cells.
The nature of series [2]: Cytotoxicity against mouse RAW264.7 cells assessed as maximal safe dose measured after 24 hrs by MTT assay. In kind it is toxicity, cell-based. Conditions: read-out: MTD.
For series [3], the system named is RAW264.7. The series can be described thus: cells. As to conditions: Mus musculus, RAW264.7, 24 h.
Description: Anti-inflammatory activity against mouse RAW264.7 cells assessed as inhibition of LPS-induced NO production measured after 24 hrs incubation by Griess analysis
Series [4] relates to Mus musculus. The series can be described thus: Anti-inflammatory activity against carrageenan-induced paw edema in ICR mouse model assessed as reduction in IL-6 level in serum at 10 mg/kg, po measured after 5 hrs by ELISA relative to control. It counts as functional.
The test system of series [5] is Mus musculus. The series can be described thus: Anti-inflammatory activity against carrageenan-induced paw edema in ICR mouse model assessed as reduction in TNF-alpha level in serum at 10 mg/kg, po measured after 5 hrs by ELISA relative to control. In kind it is functional.
The test system of series [6] is Mus musculus. As to the kind of experiment: Anti-inflammatory activity against carrageenan-induced hind paw edema mouse model assessed as reduction in cellular infiltration in connective tissue at 10 mg/kg, po. It counts as functional, organism-based. In general terms: The carrageenan paw model is a standard test of acute inflammation.
Series [7] relates to Mus musculus. The series can be described thus: Anti-inflammatory activity against carrageenan-induced hind paw edema mouse model assessed as decrease in COX-2 expression in connective tissue at 10 mg/kg, po. It counts as functional, organism-based.
Series [8] can be described thus: Gastric ulcerogenic activity in mouse assessed as mucosal erosion and inflammatory cellular infiltration at 2.5 to 10 mg/kg, po by hematoxylin and eosin staining based assay. It counts as toxicity, organism-based. As to conditions: in vivo, dose 2.5-10 mg/kg.

Regarding `COc1ccc(-n2nc(C(=O)OCc3c(-c4ccccc4)no[n+]3[O-])nc2CCl)cc1`, the viability at 24 h, 50 µM in series [1] was > 95%. The MNTC at 24 h in series [2] is ~20 µg/mL.
For `O=C(OCc1c(-c2ccccc2)no[n+]1[O-])c1nc(CCl)n(-c2ccc(C(F)(F)F)cc2)n1`, in that order: > 95% and ~20 µg/mL.
Regarding `Cc1ccc(-n2nc(C(=O)OCc3c(-c4ccccc4)no[n+]3[O-])nc2CCl)cc1`, the viability at 24 h, 50 µM in series [1] is > 95%. The MNTC at 24 h in series [2] is ~20 µg/mL.
By IC50 is commonly meant the point on the concentration scale where inhibition reaches its midpoint. Turning to `[O-][n+]1ccno1`, inhibition in series [3] was half-maximal at 50 µM (IC50).
By inhibition in vivo is commonly meant the change of the read-out against control, counted positive when it falls. In the case of `COc1ccc2c(c1)c(CC(=O)O)c(C)n2C(=O)c1ccc(Cl)cc1` [INDOMETHACIN], the inhibition in vivo at 10 mg/kg in series [4] turned out to be 44%; in series [5], 29.8%. In addition, the outcome in series [6] and in series [7] was Active. The Activity entry in series [8] is reported as “Toxic”. The molecule further registered a half-inhibitory concentration (IC50) in series [3] of 56.8 µM.
On to `N#Cc1ccc(-n2nc(C(=O)OCc3c(-c4ccccc4)no[n+]3[O-])nc2CCl)cc1`, for which the viability at 24 h, 50 µM in series [1] is > 95%. For the same molecule, the MNTC at 24 h in series [2] is ~20 µg/mL.
In the case of `O=C(OCc1c(-c2ccccc2)no[n+]1[O-])c1nc(CCl)n(-c2cccc(F)c2)n1`, the viability at 24 h, 50 µM in series [1] was > 95%. Besides, in series [2], the MNTC at 24 h was ~20 µg/mL.
For `O=C(OCc1c(-c2ccccc2)no[n+]1[O-])c1nc(CCl)n(-c2ccccc2)n1`, in that order: > 95% and ~20 µg/mL.
`O=C(OCc1c(-c2ccccc2)no[n+]1[O-])c1nc(CCl)n(-c2ccccc2F)n1`: the viability at 24 h, 50 µM in series [1] was > 95%. The MNTC at 24 h in series [2] is ~20 µg/mL. Moreover, half-maximal inhibition in series [3] (IC50) required 14.6 µM.
Consider `O=C(OCc1c(-c2ccccc2)no[n+]1[O-])c1nc(CCl)n(-c2ccc(F)cc2)n1`, for which, in series [1], the viability at 24 h, 50 µM is > 95%. In addition, the MNTC at 24 h in series [2] was ~20 µg/mL.
Regarding `Cc1cccc(-n2nc(C(=O)OCc3c(-c4ccccc4)no[n+]3[O-])nc2CCl)c1`, in series [1], the viability at 24 h, 50 µM is > 95%. Moreover, the MNTC at 24 h in series [2] is ~20 µg/mL. Moreover, half-maximal inhibition in series [3] (IC50) was put at 6.1 µM.
`O=C(OCc1c(-c2ccccc2)no[n+]1[O-])c1nc(CCl)n(-c2ccccc2C(F)(F)F)n1`: in series [1], the viability at 24 h, 50 µM is > 95%. Also, the MNTC at 24 h in series [2] was ~20 µg/mL. Further, the half-maximal inhibitory concentration (IC50) in series [3] amounted to 13.8 µM.
On to `O=C(OCc1c(-c2ccccc2)no[n+]1[O-])c1nc(CCl)n(-c2cccc(C(F)(F)F)c2)n1`, for which the viability at 24 h, 50 µM in series [1] is > 95%. Further, the MNTC at 24 h in series [2] is ~20 µg/mL. Further, in series [8], the Activity result was “Non-Toxic”.
